Experimental data: patent publication US6737383B1, “Herbicidal oxadiazolidines” (priority 1999, dated 2004)

Assays:
[1] = system: surinam grass; assay: Test B pre/postemergence surinam grass; format: in vivo, Brachiaria decumbens
Procedure, shortened: (§1)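 Test chemicals in a non-phytotoxic solvent mixture with surfactant were sprayed preemergence onto planted seeds and postemergence onto plants 2 to 18 cm tall (1- to 4-leaf stage). After twelve to sixteen days in a greenhouse, injury was visually rated against untreated controls from 0 (no effect) to 10 (complete control).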

[2] = system: cocklebur; assay: Test B pre/postemergence cocklebur; format: in vivo, Xanthium strumarium
Procedure, shortened: as §1

[3] = system: corn; assay: Test B pre/postemergence corn; format: in vivo, Zea mays
Procedure, shortened: as §1

[4] = system: crabgrass; assay: Test B pre/postemergence crabgrass; format: in vivo, Digitaria sanguinalis
Procedure, shortened: as §1

[5] = Postemergence, Rate 62 g/ha, scale 0 to 10, 0 is no effect, 10 is complete control
[6] = Postemergence, Rate 250 g/ha, scale 0 to 10, 0 no effect, 10 complete control
[7] = Preemergence, Rate 62 g/ha, scale 0 to 10 (0 no effect, 10 complete control)
[8] = Preemergence, Rate 125 g/ha, scale 0 to 10 (0 no effect, 10 complete control)
[9] = Preemergence, Rate 500 g/ha, scale 0 (no effect) to 10 (complete control)
[10] = Rate 500 g/ha, Postemergence, scale of 0 to 10 where 0 is no effect and 10 is complete control
[11] = Postemergence, Rate 125 g/ha, scale of 0 to 10 where 0 is no effect and 10 is complete control
[12] = Preemergence, Rate 250 g/ha, scale of 0 to 10 where 0 is no effect and 10 is complete control
[13] = Rate 500 g/ha, Postemergence, scale 0 to 10, 0 no effect, 10 complete control
[14] = Postemergence, Rate 125 g/ha, scale 0 to 10, 0 is no effect, 10 is complete control
[15] = Postemergence, Rate 250 g/ha, scale 0 to 10, 0 is no effect, 10 is complete control
[16] = Preemergence, Rate 500 g/ha, scale of 0 to 10 where 0 is no effect and 10 is complete control
[17] = Rate 62 g/ha, Postemergence, scale of 0 to 10 where 0 is no effect and 10 is complete control
[18] = Preemergence, Rate 125 g/ha, 0 is no effect, 10 is complete control
[19] = Preemergence, Rate 250 g/ha, scale 0 to 10, 0 is no effect, 10 is complete control
[20] = Preemergence, Rate 500 g/ha, scale 0 to 10 (0 no effect, 10 complete control)
[21] = Rate 250 g/ha, Postemergence, scale 0 to 10, 0 is no effect, 10 is complete control
[22] = Rate 500 g/ha, Postemergence, scale 0 to 10

CC(C)N(C(=O)n1oc(=O)n(-c2cccc3c2CCCC3)c1=O)c1ccc(F)cc1 [Compound 90]
5: Cocklebur plant response rating [2, 13]
8: Plant response rating, Crabgrass [4, 12] | Crabgrass plant response rating [4, 9]
4: Crabgrass plant response rating [4, 13]
0: B. signalgrass plant response rating [1, 5] | B. signalgrass plant response rating [1, 6] | B. signalgrass plant response rating [1, 7] | Plant response rating, B. signalgrass [1, 8] | B. signalgrass plant response rating ([1]; Rate 125 g/ha, Postemergence, scale 0 to 10, 0 no effect, 10 complete control) | B. signalgrass plant response rating [1, 10] | Cocklebur plant response rating [2, 7] | Plant response rating, Cocklebur [2, 8] | Plant response rating, Cocklebur [2, 12] | Cocklebur plant response rating [2, 9] | Corn plant response rating [3, 5] | Corn plant response rating [3, 11] | Corn plant response rating [3, 6] | Corn plant response rating [3, 7] | Plant response rating, Corn [3, 8] | Plant response rating, Corn [3, 12] | Corn plant response rating [3, 9] | Corn plant response rating [3, 13] | Crabgrass plant response rating [4, 7]
3: B. signalgrass plant response rating [1, 9] | Cocklebur plant response rating [2, 11] | Cocklebur plant response rating [2, 6]
1: Cocklebur plant response rating [2, 5] | Crabgrass plant response rating [4, 5]
2: Crabgrass plant response rating [4, 11] | Crabgrass plant response rating [4, 6] | Plant response rating, Crabgrass [4, 8]

CCOc1nc(C(F)(F)F)c(Cn2c(=O)on(C(=O)N(c3ccc(F)cc3)C(C)C)c2=O)s1 [Compound 381]
2: Corn plant response rating [3, 16]
0: Plant response rating, B. signalgrass [1, 14] | Plant response rating, B. signalgrass [1, 15] | Plant response rating, B. signalgrass [1, 7] | B. signalgrass plant response rating (0 to 10 scale, 0 is no effect, 10 is complete control) ([1]; Preemergence, Rate 125 g/ha) | B. signalgrass plant response rating [1, 12] | B. signalgrass plant response rating [1, 16] | B. signalgrass plant response rating [1, 17] | Plant response rating, B. signalgrass [1, 13] | Plant response rating, Cocklebur [2, 14] | Plant response rating, Cocklebur [2, 15] | Plant response rating, Cocklebur [2, 7] | Cocklebur plant response rating (0 to 10 scale) ([2]; Preemergence, Rate 125 g/ha) | Cocklebur plant response rating [2, 12] | Cocklebur plant response rating [2, 16] | Cocklebur plant response rating [2, 17] | Plant response rating, Cocklebur [2, 13] | Plant response rating, Corn [3, 14] | Plant response rating, Corn [3, 15] | Plant response rating, Corn [3, 7] | Corn plant response rating (0 to 10 scale) ([3]; Preemergence, Rate 125 g/ha) | Corn plant response rating [3, 12] | Corn plant response rating [3, 17] | Plant response rating, Corn [3, 13] | Plant response rating, Crabgrass [4, 14] | Plant response rating, Crabgrass [4, 15] | Plant response rating, Crabgrass [4, 7] | Crabgrass plant response rating (0 to 10 scale) ([4]; Preemergence, Rate 125 g/ha) | Crabgrass plant response rating [4, 17] | Plant response rating, Crabgrass [4, 13]
9: Crabgrass plant response rating [4, 16]
3: Crabgrass plant response rating [4, 12]

CCN(CC)C(=O)n1oc(=O)n(-c2ccccc2C)c1=O [Compound 364]
3: B. signalgrass plant response rating [1, 16] | Plant response rating, Corn [3, 13]
0: Plant response rating, B. signalgrass [1, 14] | Plant response rating, B. signalgrass [1, 15] | Plant response rating, B. signalgrass [1, 7] | B. signalgrass plant response rating (0 to 10 scale, 0 is no effect, 10 is complete control) ([1]; Preemergence, Rate 125 g/ha) | B. signalgrass plant response rating [1, 12] | B. signalgrass plant response rating [1, 17] | Plant response rating, Cocklebur [2, 14] | Plant response rating, Cocklebur [2, 15] | Plant response rating, Cocklebur [2, 7] | Cocklebur plant response rating (0 to 10 scale) ([2]; Preemergence, Rate 125 g/ha) | Cocklebur plant response rating [2, 12] | Cocklebur plant response rating [2, 16] | Cocklebur plant response rating [2, 17] | Plant response rating, Corn [3, 14] | Plant response rating, Corn [3, 7] | Corn plant response rating (0 to 10 scale) ([3]; Preemergence, Rate 125 g/ha) | Corn plant response rating [3, 12] | Corn plant response rating [3, 16] | Corn plant response rating [3, 17] | Plant response rating, Crabgrass [4, 14] | Plant response rating, Crabgrass [4, 15] | Plant response rating, Crabgrass [4, 7] | Crabgrass plant response rating (0 to 10 scale) ([4]; Preemergence, Rate 125 g/ha) | Crabgrass plant response rating [4, 17]
2: Plant response rating, Cocklebur [2, 13] | Plant response rating, Corn [3, 15] | Crabgrass plant response rating [4, 12] | Plant response rating, Crabgrass [4, 13]
5: Crabgrass plant response rating [4, 16]
1: Plant response rating, B. signalgrass [1, 13]

CCN(CC)C(=O)n1oc(=O)n(Cc2ccccc2)c1=O [Compound 152]
3: Crabgrass plant response rating [4, 20] | Crabgrass plant response rating [4, 22]
1: Crabgrass plant response rating [4, 19]
0: B. signalgrass plant response rating [1, 11] | B. signalgrass plant response rating [1, 7] | B. signalgrass plant response rating [1, 17] | Plant response rating, B. signalgrass [1, 21] | B. signalgrass plant response rating [1, 10] | Cocklebur plant response rating [2, 11] | Cocklebur plant response rating [2, 7] | Cocklebur plant response rating (0 to 10 scale) [2, 18] | Cocklebur plant response rating [2, 19] | Cocklebur plant response rating [2, 20] | Cocklebur plant response rating [2, 17] | Plant response rating, Cocklebur [2, 21] | Cocklebur plant response rating [2, 22] | Corn plant response rating [3, 11] | Corn plant response rating [3, 7] | Corn plant response rating (0 to 10 scale) [3, 18] | Corn plant response rating [3, 19] | Corn plant response rating [3, 20] | Corn plant response rating [3, 17] | Plant response rating, Corn [3, 21] | Corn plant response rating [3, 22] | Crabgrass plant response rating [4, 11] | Crabgrass plant response rating [4, 7] | Crabgrass plant response rating (0 to 10 scale) [4, 18] | Crabgrass plant response rating [4, 17]
6: B. signalgrass plant response rating [1, 20]
4: B. signalgrass plant response rating (0 to 10 scale) [1, 18] | B. signalgrass plant response rating [1, 19]
2: Plant response rating, Crabgrass [4, 21]
